Experimental data as given in ChEMBL document CHEMBL1149414, “Vitamin D receptor: ligand recognition and allosteric network” (J Med Chem, 2006).

Tests used:
Vitamin D3 receptor [1] = biological target: T1, Vitamin D3 receptor (Homo sapiens, UniProt P11473); experiment: Inhibition of transactivation of human VDR in COS7 cells; format: functional, cell-based, COS-7
T1 sequence (P11473 whole entry): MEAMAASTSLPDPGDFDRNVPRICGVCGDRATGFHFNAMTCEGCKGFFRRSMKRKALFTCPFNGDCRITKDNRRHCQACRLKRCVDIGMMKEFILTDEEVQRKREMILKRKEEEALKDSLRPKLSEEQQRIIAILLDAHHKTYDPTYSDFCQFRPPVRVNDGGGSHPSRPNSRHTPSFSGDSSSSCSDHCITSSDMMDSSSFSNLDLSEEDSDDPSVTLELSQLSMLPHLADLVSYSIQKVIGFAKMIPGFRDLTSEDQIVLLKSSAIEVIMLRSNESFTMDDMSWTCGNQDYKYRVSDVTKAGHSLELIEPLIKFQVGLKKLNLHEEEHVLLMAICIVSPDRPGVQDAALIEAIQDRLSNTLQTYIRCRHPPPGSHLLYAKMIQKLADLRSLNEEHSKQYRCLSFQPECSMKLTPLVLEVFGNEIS

Vitamin D3 receptor [2] = biological target: T1, Vitamin D3 receptor; experiment: Antagonistic activity against human VDR in presence of 1,25(OH)2D3; format: functional

Row | IC50 (Vitamin D3 receptor [1]) [nM] | IC50 (Vitamin D3 receptor [2]) [nM] | Compound
1 | 300 | – | C=C1C[C@H](C[C@@H](C)[C@H]2CC[C@H]3/C(=C/C=C4C[C@@H](O)C(=C)[C@H](O)C4)CCC[C@]23C)OC1=O
2 | 400 | 50 | C[C@H](/C=C/C[C@H](O)C12CC3CC(CC(C3)C1)C2)[C@H]1CC[C@H]2/C(=C/C=C3C[C@@H](O)C[C@H](O)C3)CCC[C@]12C
